Test results reported in ChEMBL document CHEMBL3785036 (J Pharm Sci, 1974).

Legend:
Type in all cases: ADME, organism-based
[1] = Drug excretion in human subject slow inactivator assessed as sum of isoniazid plus hydrazones, acetylisoniazid, isonicotinic acid and isonicotinuric acid level in urine at 681 mg, iv infused at constant rate 5.4 min measured 276.3 mins after start of drug injection by colorimetry; conditions: in vivo, 4.605 h
[2] = Drug excretion in human subject slow inactivator assessed as sum of isoniazid plus hydrazones, acetylisoniazid, isonicotinic acid and isonicotinuric acid level in urine at 681 mg, iv infused at constant rate 5.4 min measured 181 mins after start of drug injection by colorimetry; conditions: in vivo
[3] = Drug excretion in human subject slow inactivator assessed as total isonicotinoyl compound level in urine at 681 mg, iv infused at constant rate 5.4 min measured 181 mins after start of drug injection by colorimetry; conditions: in vivo
[4] = Drug excretion in human subject slow inactivator assessed as sum of isoniazid plus hydrazones, acetylisoniazid, isonicotinic acid and isonicotinuric acid level in urine at 681 mg, iv infused at constant rate 5.4 min measured 339.3 mins after start of drug injection by colorimetry; conditions: in vivo, 5.655 h
[5] = Drug excretion in human subject slow inactivator assessed as total isonicotinoyl compound level in urine at 681 mg, iv infused at constant rate 5.4 min measured 370.3 mins after start of drug injection by colorimetry; conditions: in vivo, 6.17167 h
[6] = Drug excretion in human subject rapid inactivator assessed as sum of isoniazid plus hydrazones, acetylisoniazid, isonicotinic acid and isonicotinuric acid level in urine at 670 mg, iv infused at constant rate 5.2min measured 126 mins after start of drug injection by colorimetry; conditions: in vivo, 2.1 h
[7] = Drug excretion in human subject rapid inactivator assessed as total isonicotinoyl compound level in urine at 670 mg, iv infused at constant rate 5.2min measured 158 mins after start of drug injection by colorimetry; conditions: in vivo
[8] = Drug excretion in human subject rapid inactivator assessed as total isonicotinoyl compound level in urine at 670 mg, iv infused at constant rate 5.2min measured 516 mins after start of drug injection by colorimetry; conditions: in vivo
[9] = Drug excretion in human subject slow inactivator assessed as total isonicotinoyl compound level in urine at 681 mg, iv infused at constant rate 5.4 min measured 59.1 mins after start of drug injection by colorimetry; conditions: in vivo, 0.985 h
[10] = Drug excretion in human subject rapid inactivator assessed as sum of isoniazid plus hydrazones, acetylisoniazid, isonicotinic acid and isonicotinuric acid level in urine at 670 mg, iv infused at constant rate 5.2min measured 94 mins after start of drug injection by colorimetry; conditions: in vivo
[11] = Drug excretion in human slow inactivators urine assessed as isoniazid plus hydrazones level at 1 g, iv by colorimetry; conditions: in vivo
[12] = Drug excretion in human subject slow inactivator assessed as sum of isoniazid plus hydrazones, acetylisoniazid, isonicotinic acid and isonicotinuric acid level in urine at 681 mg, iv infused at constant rate 5.4 min measured 305 mins after start of drug injection by colorimetry; conditions: in vivo
[13] = Drug excretion in human subject slow inactivator assessed as total isonicotinoyl compound level in urine at 681 mg, iv infused at constant rate 5.4 min measured 677 mins after start of drug injection by colorimetry; conditions: in vivo
[14] = Drug excretion in human subject rapid inactivator assessed as sum of isoniazid plus hydrazones, acetylisoniazid, isonicotinic acid and isonicotinuric acid level in urine at 670 mg, iv infused at constant rate 5.2min measured 296 mins after start of drug injection by colorimetry; conditions: in vivo
[15] = Drug excretion in human subject rapid inactivator assessed as total isonicotinoyl compound level in urine at 670 mg, iv infused at constant rate 5.2min measured 94 mins after start of drug injection by colorimetry; conditions: in vivo
[16] = Drug excretion in human subject rapid inactivator assessed as sum of isoniazid plus hydrazones, acetylisoniazid, isonicotinic acid and isonicotinuric acid level in urine at 670 mg, iv infused at constant rate 5.2min measured 32 mins after start of drug injection by colorimetry; conditions: in vivo
[17] = Drug excretion in human subject slow inactivator assessed as sum of isoniazid plus hydrazones, acetylisoniazid, isonicotinic acid and isonicotinuric acid level in urine at 681 mg, iv infused at constant rate 5.4 min measured 747 mins after start of drug injection by colorimetry; conditions: in vivo, 12.45 h
[18] = Drug excretion in human subject rapid inactivator assessed as total isonicotinoyl compound level in urine at 670 mg, iv infused at constant rate 5.2min measured 296 mins after start of drug injection by colorimetry; conditions: in vivo
[19] = Drug excretion in human subject slow inactivator assessed as total isonicotinoyl compound level in urine at 681 mg, iv infused at constant rate 5.4 min measured 586 mins after start of drug injection by colorimetry; conditions: in vivo
[20] = Drug metabolism in human slow inactivators assessed as excretion of pyruvic acid isonicotinoylhydrazone in urine at 1 g, iv by colorimetry; conditions: in vivo
[21] = Drug excretion in human subject slow inactivator assessed as sum of isoniazid plus hydrazones, acetylisoniazid, isonicotinic acid and isonicotinuric acid level in urine at 681 mg, iv infused at constant rate 5.4 min measured 677 mins after start of drug injection by colorimetry; conditions: in vivo
[22] = Drug excretion in human rapid inactivators urine assessed as isonicotinuric acid level at 1 g, iv by colorimetry; conditions: in vivo
[23] = Drug excretion in human subject slow inactivator assessed as sum of isoniazid plus hydrazones, acetylisoniazid, isonicotinic acid and isonicotinuric acid level in urine at 681 mg, iv infused at constant rate 5.4 min measured 613 mins after start of drug injection by colorimetry; conditions: in vivo
[24] = Drug excretion in human subject rapid inactivator assessed as sum of isoniazid plus hydrazones, acetylisoniazid, isonicotinic acid and isonicotinuric acid level in urine at 670 mg, iv infused at constant rate 5.2min measured 227 mins after start of drug injection by colorimetry; conditions: in vivo
[25] = Drug metabolism in human rapid inactivators assessed as excretion of pyruvic acid isonicotinoylhydrazone in urine at 1 g, iv by colorimetry; conditions: in vivo
[26] = Drug excretion in human subject rapid inactivator assessed as sum of isoniazid plus hydrazones, acetylisoniazid, isonicotinic acid and isonicotinuric acid level in urine at 670 mg, iv infused at constant rate 5.2min measured 400 mins after start of drug injection by colorimetry; conditions: in vivo
[27] = Drug excretion in human subject rapid inactivator assessed as total isonicotinoyl compound level in urine at 670 mg, iv infused at constant rate 5.2min measured 458 mins after start of drug injection by colorimetry; conditions: in vivo
[28] = Drug excretion in human subject slow inactivator assessed as sum of isoniazid plus hydrazones, acetylisoniazid, isonicotinic acid and isonicotinuric acid level in urine at 681 mg, iv infused at constant rate 5.4 min measured 370.3 mins after start of drug injection by colorimetry; conditions: in vivo, 6.17167 h
[29] = Drug excretion in human subject rapid inactivator assessed as total isonicotinoyl compound level in urine at 670 mg, iv infused at constant rate 5.2min measured 426 mins after start of drug injection by colorimetry; conditions: in vivo, 7.1 h
[30] = Drug excretion in human subject slow inactivator assessed as total isonicotinoyl compound level in urine at 681 mg, iv infused at constant rate 5.4 min measured 466 mins after start of drug injection by colorimetry; conditions: in vivo
[31] = Drug excretion in human subject slow inactivator assessed as total isonicotinoyl compound level in urine at 681 mg, iv infused at constant rate 5.4 min measured 648 mins after start of drug injection by colorimetry; conditions: in vivo, 10.8 h

- Drug excretion [1]: 32.59 mg
- Drug excretion [2]: 34.76 mg
- Drug excretion [3]: 33.6 mg
- Drug excretion [4]: 33.69 mg
- Drug excretion [5]: 26.6 mg
- Drug excretion [6]: 42.3 mg
- Drug excretion [7]: 51.7 mg
- Drug excretion [8]: 17 mg
- Drug excretion [9]: 33.7 mg
- Drug excretion [10]: 48.1 mg
- Drug excretion [11]: 98%
- Drug excretion [12]: 27.92 mg
- Drug excretion [13]: 10.6 mg
- Drug excretion [14]: 39.4 mg
- Drug excretion [15]: 51.8 mg
- Drug excretion [16]: 42.1 mg
- Drug excretion [17]: 10.074 mg
- Drug excretion [18]: 42.1 mg
- Drug excretion [19]: 12.7 mg
- Drug metabolism [20]: 13.9 %molar
- Drug excretion [21]: 11.396 mg
- Drug excretion [22]: 101%
- Drug excretion [23]: 11.202 mg
- Drug excretion [24]: 38.5 mg
- Drug metabolism [25]: 2.9 %molar
- Drug excretion [26]: 17.9 mg
- Drug excretion [27]: 17.2 mg
- Drug excretion [28]: 26.76 mg
- Drug excretion [29]: 17.1 mg
- Drug excretion [30]: 20 mg
- Drug excretion [31]: 11.6 mg
SMILES: NNC(=O)c1ccncc1 [ISONIAZID]
